Tests used:
[1] = test system: carrageenin-induced paw oedema; experiment: Carrageenin oedema in mouse paw; type: in vivo; conditions: mice, carrageenin intraplantar; alpha-humulene 50 mg/kg orally 1 h before; dexamethasone 0.5 mg/kg subcutaneously 4 h before; 30 min to 48 h
Procedure: The test used below is described by Cunha et. al. in the publication Life Sci. 70:159-169, 2001. […] The left paw received the same volume of saline and was taken as a negative control. The swelling was measured with a plethysmometer (manufacturer: Ugo Basile, Italy) along various time intervals after the injection of the phlogistic agent. The difference between the volumes of the right and the left paw were quantified (in ml) and taken as an index of oedema. One hour before the test the animals were systemically treated (orally) with 50 mg/kg of alphahumulene or trans-caryophyllene. Graph 2 below compares the inhibition of the volume of the oedema by administration of either alpha-humulene or trans-caryophyllene with inhibition obtained with the administration of dexamethasone (0.5 mg/kg, injected subcutaneously 4 h before test) and used as positive control. Oedema volume measurement time point intervals were 30, 60, 120 and 240 min, 24 h and 48 h. Each point represents the average of 5 animals, and the vertical bars the mean standard error deviation.

histamine-induced oedema = experiment: Histamine oedema in mouse paw; type: in vivo; conditions: mice, histamine 100 nmol/paw intraplantar; 50 mg/kg orally 1 h before; 10 min to 48 h
Procedure: The test used below is described by Cunha et. al. in the publication Life Sci. 70:159-169, 2001. Male 25 g-35 g mice were slightly sedated with ether and were injected 50 μl saline containing histamine (100 nmol/paw), intraplantar, in the right paw. The left paw received the same volume of saline and was taken as negative control. The swelling was measured with a plethysmometer (manufacturer: Ugo Basile, Italy) along various time intervals after the injection of the phlogistic agent. The difference between the volumes of the right and the left paw were quantified (in ml) and taken as an index of oedema. One hour before the test the animals were systemically treated (orally) with 50 mg/kg of alpha-humulene. Graph 4 below compares the inhibition of the volume of the oedema by administration of alpha-humulene. Oedema volume measurement time intervals were 10, 20, 30, 60, and 120 min, 24 h and 48 h. Each point represents the average of 5 animals, and the vertical bars the mean standard deviation.

[2] = test system: carrageenin-induced inflammatory nociception in the hind paw; experiment: Inflammatory nociception induced by carrageenin (von Frey filament); type: in vivo; conditions: mice, carrageenin 300 μg per paw intraplantar; alpha-humulene 50 mg/kg orally or paracetamol 600 mg/kg orally, 1 h before; evaluated after 3, 4 and 6 hours
Procedure: The evaluation methodology used in this test is described by Vaz et al. in J. Pharmacol. Exp. Ther. 278:304-312, 1996. Male mice (25-35 g) were systemically (orally) treated with alpha-humulene, 50 mg/kg, administered 1 hour before the experiment. Animals treated with 0.9% saline solution (0.1 ml/10 g) were used as the control. Another group of animals was treated with paracetamol (600 mg/kg, orally, administered 1 h before the treatment), that was used as positive control. For the induction of inflammatory pain, the animals received an intraplantar injection of 0.05 ml of carrageenin (300 μg per paw) at the plantar surface of the right hind paw. […] The nociception was evaluated with a Von Frey filament (0.4 g) after 3, 4 and 6 hours. […] The filament was applied to the right hind paw, complying with the criteria of (1) the application was perpendicular to the plantar surface, with enough pressure to cause the filament to bend, thus obtaining total pressure; (2) the animals were evaluated when the four paws were touching the screen; (3) the paw withdrawal response was considered when the animal removed the paw entirely from the support screen; (4) each animal was stimulated 10 consecutive times, each stimulation lasting 1 second; (5) each paw withdrawal event was considered as 10% of the response, with 10 withdrawal events corresponding to 100% response. […]

iNOS = experiment: Expression of enzyme iNOS in carrageenin-injected rat paw (Western blot); type: in vivo; conditions: 50 mg/kg orally 60 minutes before carrageenin 300 μg/paw, subcutaneous paw tissue
Procedure: Animals treated with 0.9% (0.1 ml/10 g) saline were used as control. Another group of animals was treated with 0.5 mg/kg dexamethasone, subcutaneously, 4 hours before the test, and used as positive control. After 60 minutes, the animals received intraplantar injections of 100 μl of carrageenin (300 μg/paw) and were sacrificed after 180 minutes, and subcutaneous paw tissue was removed 240 minutes after the carrageenin injection. The collected tissue was immediately frozen in liquid nitrogen and re-suspended in a buffer of hypotonic lysis (10 mM HEPES N-2-hydroxyethylpiperazine-N'-2-ethanesulfonic acid, 1.5 mM MgCl2, 10 mM KCl, 0.5 mM PMSF phenylmethylsulphonyl fluoride, 1.5 μg/ml trypsin inhibitor, 7 μg/ml pepstatin A, 5 μg/ml leupeptin, 0.1 mM benzamidine 0.1 mM and 0.5 mM dithiothreitol) and homogenized. The homogenate was divided in three 2 ml aliquots, cooled in ice for 15 minutes, vigorously agitated and once again cooled in ice, in the presence of 20 μl 10% non-ionic detergent Nonidet P-40 (Roche Diagnostics, USA). […] The protein concentration was determined by the Bradford method (BioRad Laboratories Inc. kit, Milan, Italy). […] The bands thus obtained were quantified using a chemoluminescence kit and densitometry analysis (relative units) in radiographic films.

[3] = reference: Carcinogenesis (2002), 23(5), 795-802; cited from earlier work
PGE2 = experiment: Levels of PGE2 in carrageenin-injected rat paw exsudate (Elisa); type: in vivo; conditions: 50 mg/kg orally 60 minutes before carrageenin 300 μg/paw, paw exsudate after 180 minutes
Procedure: The test used below is described by Pinheiro et. al. in the publication Inflamm. Res. 51: 603-610, 2002, with minor modifications. Male 160-180 g rats were orally given 50 mg/kg of trans-caryophyllene. Animals treated with 0.9% (0.1 ml/10 g) saline were used as control. Another group of animals was treated with 0.5 mg/kg dexamethasone, subcutaneously, 4 hours before the test, and used as positive control. After 60 minutes, the animals received intraplantar injections of 100 μl of carrageenin (300 μg/paw) and were sacrificed after 180 minutes. The exsudate of the paws was collected by dialysis with the help of two polyethylene canulas, and was utilized for the quantification of PGE2, with an Elisa kit, according to the manufacturer's instructions (R & D Systems®, USA). The tests were performed in duplicate, and repeated three times. The answers are expressed in pg/mg of tissue. Graph 9 below (each result represents the average of 5 animals, and the vertical bars the mean standard error deviation) compares inhibition of the PGE2 level growth induced by carrageenin in the paws of rats, by administration of alpha-humulene and trans-caryophyllene, compared to the effect obtained by treatment with dexomethasone.

Row | SMILES | inflammatory volume (paw oedema volume) [1] | histamine-induced oedema formation (histamine-induced oedema) | inflammatory nociception (paw withdrawal response to 0.4 g von Frey filament) [2] | expression of enzymes iNOS induced by carrageenin in the paws of rats (iNOS) | anti-inflammatory or chemo-therapic effects [3] | growth of PGE2 levels induced by carrageenin in the paws of rats (PGE2)
1 | C/C1=C\CC/C(C)=C/CC(C)(C)/C=C/C1 [alpha-humulene] | reduced the inflammatory volume | significantly reduced histamine-induced oedema formation | reduced the inflammatory nociception | markedly inhibited the expression | virtually inactive | markedly inhibited the growth of PGE2 levels
2 | C=C1CC/C=C(\C)CC[C@@H]2[C@@H]1CC2(C)C [trans-caryophyllene] |  |  |  |  |  | markedly inhibited the growth of PGE2 levels

Reference: patent US20080280996A1, “Use of Carophyllenes in the Manufacture of Medicaments and Treatment of Bodily Conditions of Inflammation and Inflammatory Pain” (priority 2004, published 2008)
